Key:
Experiment in all cases: cells
Type in all cases: functional, cell-based, Homo sapiens
[1] = tested on: NCI-H1417; details: Homo sapiens, NCI-H1417;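 note: human NCI-H1417 cells, growth inhibition determined with a cell viability readout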
Description: SANGER: Inhibition of human NCI-H1417 cell growth in a cell viability assay.

[2] = tested on: SK-OV-3; details: Homo sapiens, SK-OV-3;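 note: growth inhibition of SK-OV-3 human cells, read out with a cell viability assay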
Description: SANGER: Inhibition of human SK-OV-3 cell growth in a cell viability assay.

[3] = tested on: MCF7; details: Homo sapiens, MCF7;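 note: growth inhibition of human MCF7 cells, read out with a cell viability assay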
Description: SANGER: Inhibition of human MCF7 cell growth in a cell viability assay.

[4] = tested on: 769-P; details: Homo sapiens, 769-P
Description: SANGER: Inhibition of human 769-P cell growth in a cell viability assay.

[5] = tested on: IGR-1; details: Homo sapiens, IGR-1;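 note: growth inhibition of human IGR-1 cells, read out with a cell viability assay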
Description: SANGER: Inhibition of human IGR-1 cell growth in a cell viability assay.

[6] = tested on: COLO-741; details: Homo sapiens, COLO-741
Description: SANGER: Inhibition of human COLO-741 cell growth in a cell viability assay.

[7] = tested on: RVH-421; details: Homo sapiens, RVH-421
Description: SANGER: Inhibition of human RVH-421 cell growth in a cell viability assay.

[8] = tested on: SW1573; details: Homo sapiens, SW1573;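 note: growth inhibition of SW1573 cells, read out with a cell viability assay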
Description: SANGER: Inhibition of human SW1573 cell growth in a cell viability assay.

[9] = tested on: A-431; details: Homo sapiens, A-431;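 note: growth inhibition of A-431 cells, determined with a cell viability read-out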
Description: SANGER: Inhibition of human A431 cell growth in a cell viability assay.

[10] = tested on: HCC1419; details: Homo sapiens, HCC1419;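 note: growth inhibition of human HCC1419 cells, read out as cell viability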
Description: SANGER: Inhibition of human HCC1419 cell growth in a cell viability assay.

[11] = tested on: NCI-H1792; details: Homo sapiens, NCI-H1792;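 note: growth inhibition of human NCI-H1792 cells, read out as cell viability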
Description: SANGER: Inhibition of human NCI-H1792 cell growth in a cell viability assay.

[12] = tested on: MC-IXC; details: Homo sapiens, MC-IXC;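 note: growth inhibition of MC-IXC cells, read out with a cell viability assay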
Description: SANGER: Inhibition of human MC-IXC cell growth in a cell viability assay.

[13] = tested on: NCI-H2227; details: Homo sapiens, NCI-H2227;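 note: growth inhibition of the human cell line, read out with a cell viability assay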
Description: SANGER: Inhibition of human NCI-H2227 cell growth in a cell viability assay.

[14] = tested on: NCI-H2228; details: Homo sapiens, NCI-H2228;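 note: growth inhibition of human NCI-H2228 cells, read out by a cell viability assay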
Description: SANGER: Inhibition of human NCI-H2228 cell growth in a cell viability assay.

[15] = tested on: BEN; details: Homo sapiens, BEN;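 note: growth inhibition of the BEN cell line, read out with a cell viability assay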
Description: SANGER: Inhibition of human BEN cell growth in a cell viability assay.

[16] = tested on: UO-31; details: Homo sapiens, UO-31;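 note: cell viability assay measuring inhibition of cell growth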
Description: SANGER: Inhibition of human U031 cell growth in a cell viability assay.

[17] = tested on: CAL-39; details: Homo sapiens, CAL-39;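 note: cell viability assay measuring growth inhibition of CAL-39 cells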
Description: SANGER: Inhibition of human CAL-39 cell growth in a cell viability assay.

[18] = tested on: IST-SL2; details: Homo sapiens, IST-SL2;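 note: growth inhibition of human IST-SL2 cells, read out by a cell viability assay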
Description: SANGER: Inhibition of human IST-SL2 cell growth in a cell viability assay.

[19] = tested on: DU-145; details: Homo sapiens, DU-145
Description: SANGER: Inhibition of human DU-145 cell growth in a cell viability assay.

[20] = tested on: NUGC-3; details: Homo sapiens, NUGC-3;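 note: growth inhibition of human NUGC-3 cells, read out with a cell viability assay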
Description: SANGER: Inhibition of human NUGC-3 cell growth in a cell viability assay.

[21] = tested on: PANC-03-27; details: Homo sapiens, PANC-03-27
Description: SANGER: Inhibition of human PANC-03-27 cell growth in a cell viability assay.

[22] = tested on: HCC1937; details: Homo sapiens, HCC1937;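 note: growth inhibition measured with a cell viability read-out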
Description: SANGER: Inhibition of human HCC1937 cell growth in a cell viability assay.

[23] = tested on: MG-63; details: Homo sapiens, MG-63;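 note: growth inhibition of human MG-63 cells, read out with a cell viability assay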
Description: SANGER: Inhibition of human MG-63 cell growth in a cell viability assay.

[24] = tested on: LB647-SCLC; details: Homo sapiens, LB647-SCLC;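 note: cell growth inhibition, read out by a viability assay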
Description: SANGER: Inhibition of human LB647-SCLC cell growth in a cell viability assay.

[25] = tested on: T-24; details: Homo sapiens, T-24;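 note: growth inhibition of T-24 cells, read out with a cell viability assay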
Description: SANGER: Inhibition of human T-24 cell growth in a cell viability assay.

[26] = tested on: BFTC-905; details: Homo sapiens, BFTC-905
Description: SANGER: Inhibition of human BFTC-905 cell growth in a cell viability assay.

[27] = tested on: HOP-92; details: Homo sapiens, HOP-92;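 note: cell viability readout, with IC50 reflecting inhibition of HOP-92 cell growth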
Description: SANGER: Inhibition of human HOP-92 cell growth in a cell viability assay.

[28] = tested on: 639-V; details: Homo sapiens, 639-V;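 note: growth inhibition of 639-V cells, read out with a cell viability assay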
Description: SANGER: Inhibition of human 639-V cell growth in a cell viability assay.

[29] = tested on: GDM-1; details: Homo sapiens, GDM-1;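 note: cell viability readout used to measure growth inhibition of human GDM-1 cells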
Description: SANGER: Inhibition of human GDM-1 cell growth in a cell viability assay.

[30] = tested on: PA-1; details: Homo sapiens, PA-1;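 note: IC50 for suppression of PA-1 cell proliferation, determined with a cell viability read-out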
Description: SANGER: Inhibition of human PA-1 cell growth in a cell viability assay.

[31] = tested on: A2058; details: Homo sapiens, A2058;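 note: reduction of A2058 cell growth, read out with a viability assay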
Description: SANGER: Inhibition of human A2058 cell growth in a cell viability assay.

[32] = tested on: FaDu; details: Homo sapiens, FaDu;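 note: cell viability readout of growth inhibition in FaDu cells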
Description: SANGER: Inhibition of human FADU cell growth in a cell viability assay.

[33] = tested on: MDA-MB-453; details: Homo sapiens, MDA-MB-453
Description: SANGER: Inhibition of human MDA-MB-453 cell growth in a cell viability assay.

[34] = tested on: CHP-126; details: Homo sapiens, CHP-126
Description: SANGER: Inhibition of human CHP-126 cell growth in a cell viability assay.

[35] = tested on: NCI-H2009; details: Homo sapiens, NCI-H2009;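 note: cell viability assay measuring inhibition of NCI-H2009 cell growth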
Description: SANGER: Inhibition of human NCI-H2009 cell growth in a cell viability assay.

[36] = tested on: KARPAS-422; details: Homo sapiens, KARPAS-422
Description: SANGER: Inhibition of human KARPAS-422 cell growth in a cell viability assay.

[37] = tested on: CAL-120; details: Homo sapiens, CAL-120;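 note: cell growth inhibition, read out as cell viability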
Description: SANGER: Inhibition of human CAL-120 cell growth in a cell viability assay.

[38] = tested on: JEG-3; details: Homo sapiens, JEG-3;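 note: growth inhibition of human JEG-3 cells, read out with a cell viability assay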
Description: SANGER: Inhibition of human JEG-3 cell growth in a cell viability assay.

[39] = tested on: TYK-nu; details: Homo sapiens, TYK-nu;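 note: growth inhibition of human TYK-nu cells, read out by a cell viability assay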
Description: SANGER: Inhibition of human TYK-nu cell growth in a cell viability assay.

[40] = tested on: MHH-CALL-2; details: Homo sapiens, MHH-CALL-2;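 note: growth inhibition of the cell line, read out in a cell viability assay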
Description: SANGER: Inhibition of human MHH-CALL-2 cell growth in a cell viability assay.

[41] = tested on: EGI-1; details: Homo sapiens, EGI-1;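 note: cell viability readout used to gauge growth inhibition of EGI-1 cells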
Description: SANGER: Inhibition of human EGI-1 cell growth in a cell viability assay.

[42] = tested on: SW1990; details: Homo sapiens, SW1990;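 note: cell growth inhibition determined with a viability assay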
Description: SANGER: Inhibition of human SW1990 cell growth in a cell viability assay.

[43] = tested on: HMV-2 cell line; details: Homo sapiens, HMV-2;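 note: growth inhibition of HMV-II cells, read out with a cell viability assay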
Description: SANGER: Inhibition of human HMV-II cell growth in a cell viability assay.

[44] = tested on: KYSE-140; details: Homo sapiens, KYSE-140;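 note: cell viability assay measuring growth inhibition in human KYSE-140 cells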
Description: SANGER: Inhibition of human KYSE-140 cell growth in a cell viability assay.

[45] = tested on: NCI-H460; details: Homo sapiens, NCI-H460;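 note: cell viability assay scoring growth inhibition of human NCI-H460 cells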
Description: SANGER: Inhibition of human NCI-H460 cell growth in a cell viability assay.

SMILES: CCC/C=C/C=C/C(=O)O[C@H]1/C(=C/C(=O)OC)C[C@H]2C[C@H]([C@@H](C)O)OC(=O)C[C@H](O)C[C@@H]3C[C@H](OC(C)=O)C(C)(C)[C@](O)(C[C@@H]4C/C(=C/C(=O)OC)C[C@H](/C=C/C(C)(C)[C@]1(O)O2)O4)O3 [BRYOSTATIN 1]
- IC50 [1]: > 8 nM
- IC50 [2]: > 8 nM
- IC50 [3]: > 8 nM
- IC50 [4]: > 8 nM
- IC50 [5]: > 8 nM
- IC50 [6]: > 8 nM
- IC50 [7]: > 8 nM
- IC50 [8]: > 8 nM
- IC50 [9]: > 8 nM
- IC50 [10]: > 8 nM
- IC50 [11]: > 8 nM
- IC50 [12]: > 8 nM
- IC50 [13]: > 8 nM
- IC50 [14]: > 8 nM
- IC50 [15]: > 8 nM
- IC50 [16]: > 8 nM
- IC50 [17]: > 8 nM
- IC50 [18]: > 0.008 µM
- IC50 [19]: > 8 nM
- IC50 [20]: > 8 nM
- IC50 [21]: > 8 nM
- IC50 [22]: > 8 nM
- IC50 [23]: > 8 nM
- IC50 [24]: > 8 nM
- IC50 [25]: > 8 nM
- IC50 [26]: > 8 nM
- IC50 [27]: > 8 nM
- IC50 [28]: > 8 nM
- IC50 [29]: > 8 nM
- IC50 [30]: > 8 nM
- IC50 [31]: > 8 nM
- IC50 [32]: > 8 nM
- IC50 [33]: > 0.008 µM
- IC50 [34]: > 8 nM
- IC50 [35]: > 8 nM
- IC50 [36]: > 8 nM
- IC50 [37]: > 8 nM
- IC50 [38]: > 8 nM
- IC50 [39]: > 8 nM
- IC50 [40]: > 8 nM
- IC50 [41]: > 8 nM
- IC50 [42]: > 8 nM
- IC50 [43]: 2.26 nM
- IC50 [44]: > 8 nM
- IC50 [45]: > 8 nM

SMILES: Oc1ccc2ccccc2c1SSc1c(O)ccc2ccccc12
- IC50 [1]: > 32000 nM
- IC50 [2]: > 32000 nM
- IC50 [3]: 2180 nM
- IC50 [4]: > 32000 nM
- IC50 [5]: > 32000 nM
- IC50 [6]: 18000 nM
- IC50 [7]: > 32000 nM
- IC50 [8]: > 32000 nM
- IC50 [9]: > 32000 nM
- IC50 [10]: > 32000 nM
- IC50 [11]: > 32000 nM
- IC50 [12]: > 32000 nM
- IC50 [13]: > 32000 nM
- IC50 [14]: > 32000 nM
- IC50 [15]: > 32000 nM
- IC50 [16]: > 32000 nM
- IC50 [17]: > 32000 nM
- IC50 [18]: 20.7 µM
- IC50 [19]: 8210 nM
- IC50 [20]: > 32000 nM
- IC50 [21]: > 32000 nM
- IC50 [22]: > 32000 nM
- IC50 [23]: > 32000 nM
- IC50 [24]: 7300 nM
- IC50 [25]: > 32000 nM
- IC50 [26]: 5150 nM
- IC50 [27]: > 32000 nM
- IC50 [28]: > 32000 nM
- IC50 [29]: > 32000 nM
- IC50 [30]: 27100 nM
- IC50 [31]: > 32000 nM
- IC50 [32]: > 32000 nM
- IC50 [33]: > 32 µM
- IC50 [34]: 6740 nM
- IC50 [35]: 5040 nM
- IC50 [36]: 7840 nM
- IC50 [37]: > 32000 nM
- IC50 [38]: > 32000 nM
- IC50 [39]: > 32000 nM
- IC50 [40]: > 32000 nM
- IC50 [41]: > 32000 nM
- IC50 [42]: > 32000 nM
- IC50 [43]: > 32000 nM
- IC50 [44]: > 32000 nM
- IC50 [45]: > 32000 nM

SMILES: Cc1cc([N+](=O)[O-])ccc1NS(=O)(=O)c1cc(Cl)ccc1Cl
- IC50 [1]: 23200 nM
- IC50 [2]: 9130 nM
- IC50 [3]: 2640 nM
- IC50 [4]: 6730 nM
- IC50 [5]: 2010 nM
- IC50 [6]: 4490 nM
- IC50 [7]: 931 nM
- IC50 [8]: 9540 nM
- IC50 [9]: 2090 nM
- IC50 [10]: 3890 nM
- IC50 [11]: 8530 nM
- IC50 [12]: 2510 nM
- IC50 [13]: > 32000 nM
- IC50 [14]: 17000 nM
- IC50 [15]: 2280 nM
- IC50 [16]: 8660 nM
- IC50 [17]: 2160 nM
- IC50 [18]: 8.24 µM
- IC50 [19]: 4690 nM
- IC50 [20]: 3650 nM
- IC50 [21]: 6380 nM
- IC50 [22]: 6270 nM
- IC50 [23]: 5960 nM
- IC50 [24]: > 32000 nM
- IC50 [25]: > 32000 nM
- IC50 [26]: 3650 nM
- IC50 [27]: 2810 nM
- IC50 [28]: 1610 nM
- IC50 [29]: 8370 nM
- IC50 [30]: 2900 nM
- IC50 [31]: 2030 nM
- IC50 [32]: 4280 nM
- IC50 [33]: 10.8 µM
- IC50 [34]: > 32000 nM
- IC50 [35]: 2690 nM
- IC50 [36]: 8260 nM
- IC50 [37]: 6020 nM
- IC50 [38]: 4900 nM
- IC50 [39]: 2010 nM
- IC50 [40]: 18200 nM
- IC50 [41]: 24800 nM
- IC50 [42]: 5380 nM
- IC50 [43]: 1540 nM
- IC50 [44]: 4580 nM
- IC50 [45]: 3660 nM

SMILES: COc1cccc2c1C(=O)c1c(O)c3c(c(O)c1C2=O)C[C@@](O)(C(=O)CO)C[C@@H]3O[C@H]1C[C@H](N)[C@H](O)[C@H](C)O1 [DOXORUBICIN]
- IC50 [1]: 370 nM
- IC50 [2]: 50.1 nM
- IC50 [3]: 11.7 nM
- IC50 [4]: 20.8 nM
- IC50 [5]: 33.9 nM
- IC50 [6]: 195 nM
- IC50 [7]: 169 nM
- IC50 [8]: 82.8 nM
- IC50 [9]: 20.9 nM
- IC50 [10]: 632 nM
- IC50 [11]: 572 nM
- IC50 [12]: 67.9 nM
- IC50 [13]: > 1020 nM
- IC50 [14]: 13.5 nM
- IC50 [15]: > 1020 nM
- IC50 [16]: 354 nM
- IC50 [17]: 98.2 nM
- IC50 [18]: 0.0738 µM
- IC50 [19]: 73.7 nM
- IC50 [20]: 45.2 nM
- IC50 [21]: 28.2 nM
- IC50 [22]: 116 nM
- IC50 [23]: 22.1 nM
- IC50 [24]: 123 nM
- IC50 [25]: 245 nM
- IC50 [26]: 16.2 nM
- IC50 [27]: 291 nM
- IC50 [28]: 15.9 nM
- IC50 [29]: 160 nM
- IC50 [30]: 44.5 nM
- IC50 [31]: 17.7 nM
- IC50 [32]: 102 nM
- IC50 [33]: > 1.02 µM
- IC50 [34]: 59.2 nM
- IC50 [35]: 51.8 nM
- IC50 [36]: 193 nM
- IC50 [37]: 778 nM
- IC50 [38]: 95.1 nM
- IC50 [39]: 663 nM
- IC50 [40]: 359 nM
- IC50 [41]: 598 nM
- IC50 [42]: 202 nM
- IC50 [43]: 22.6 nM
- IC50 [44]: 50.4 nM
- IC50 [45]: 12.7 nM

SMILES: Nc1ccn([C@@H]2O[C@H](CO)[C@@H](O)C2(F)F)c(=O)n1 [GEMCITABINE]
- IC50 [1]: > 1020 nM
- IC50 [2]: 38.7 nM
- IC50 [3]: < 4 nM
- IC50 [4]: < 4 nM
- IC50 [5]: 14.4 nM
- IC50 [6]: 120 nM
- IC50 [7]: > 1020 nM
- IC50 [8]: 457 nM
- IC50 [9]: < 4 nM
- IC50 [10]: > 1020 nM
- IC50 [11]: 259 nM
- IC50 [12]: 2.26 nM
- IC50 [13]: > 1020 nM
- IC50 [14]: < 4 nM
- IC50 [15]: 238 nM
- IC50 [16]: < 4 nM
- IC50 [17]: > 1020 nM
- IC50 [18]: < 0.004 µM
- IC50 [19]: 9.29 nM
- IC50 [20]: 18.3 nM
- IC50 [21]: 3.51 nM
- IC50 [22]: > 1020 nM
- IC50 [23]: 1.33 nM
- IC50 [24]: 1.18 nM
- IC50 [25]: > 1020 nM
- IC50 [26]: < 4 nM
- IC50 [27]: 951 nM
- IC50 [28]: 193 nM
- IC50 [29]: 62.5 nM
- IC50 [30]: 8.99 nM
- IC50 [31]: 32.8 nM
- IC50 [32]: 105 nM
- IC50 [33]: > 1.02 µM
- IC50 [34]: 24.1 nM
- IC50 [35]: < 4 nM
- IC50 [36]: 85.8 nM
- IC50 [37]: 576 nM
- IC50 [38]: 277 nM
- IC50 [39]: 72.6 nM
- IC50 [40]: 1020 nM
- IC50 [41]: 214 nM
- IC50 [42]: 113 nM
- IC50 [43]: 24.3 nM
- IC50 [44]: 27.9 nM
- IC50 [45]: 13.5 nM

Source: ChEMBL document CHEMBL1201861, “Genomics of Drug Sensitity in Cancer screening data, Wellcome Trust Sanger Institute”
